# Patent US20010014748A1, “HIV INTEGRASE INHIBITORS” (priority 1998, published 2001)
# Target: T1, HIV integrase (Human immunodeficiency virus type 1 group M subtype B, UniProt P04585)
# T1 construct: strand transfer reaction catalyzed by the recombinant integrase in vitro
# Assay: HIV integrase assay: strand transfer catalyzed by recombinant integrase
# Format: biochemical
# Details: strand transfer activity of recombinant integrase
# Description: HIV Integrase Assay: Strand Transfer Catalyzed by Recombinant Integrase
# Assays for the strand transfer activity of integrase were conducted according to Wolfe, A. L. et al., J. Virol. 70, 1424 (1996, hereby incorporated by reference for these purposes. Data for representative compounds of the present invention follow: […]
row,SMILES,IC50 [µM]
1,CC(=O)OC1C(O)C2=C(CCC3C2(C)CC(OC(=O)CCCCCCCCCCCCCCCO)C(OS(=O)(=O)O)C3(C)C)C2=CCC(C(C)CCC3(C(C)(C)O)CO3)C21C (centres unmarked) [Compound A1],14
2,C=C(CCC(C)C1CCC2C3=C(C(O)C(OC(C)=O)C21C)C1(C)CC(O)C(OS(=O)(=O)O)C(C)(C)C1CC3)C(C)C (centres unmarked) [Compound A3],15
3,C=C(CCC(C)C1CC=C2C3=C(C(O)C(OC(C)=O)C21C)C1(C)CC(O)C(OC(=O)CCC(=O)O)C(C)(C)C1CC3)C(C)C (centres unmarked) [Compound J],16
4,C=C(CCC(C)C1CC=C2C3=C(C(O)C(OC(C)=O)C21C)C1(C)CC(OC(=O)CCC(=O)O)C(O)C(C)(C)C1CC3)C(C)C (centres unmarked) [Compound K],68
5,C=C(CC[C@@H](C)[C@H]1CC=C2C3=C([C@@H](O)[C@H](OC(C)=O)C21C)C1(C)C[C@@H](OC(=O)CN)[C@H](OC(=O)CN)C(C)(C)[C@@H]1CC3)C(C)C (some centres unmarked) [Compound X],5
